# According to ChEMBL document CHEMBL2074133, “Effect of phenobarbital on the expression of bile salt and organic anion transporters of rat liver” (J Hepatol, 2001):
# How the values were obtained:
# Format in all cases: functional, organism-based, Sprague-Dawley
# [1] = biological target: T1, Solute carrier organic anion transporter family member 1A4 (Rattus norvegicus, UniProt O35913); test: (§1) TP_TRANSPORTER: Northern blot in vivo SD rat, liver
# T1 sequence (O35913 whole entry): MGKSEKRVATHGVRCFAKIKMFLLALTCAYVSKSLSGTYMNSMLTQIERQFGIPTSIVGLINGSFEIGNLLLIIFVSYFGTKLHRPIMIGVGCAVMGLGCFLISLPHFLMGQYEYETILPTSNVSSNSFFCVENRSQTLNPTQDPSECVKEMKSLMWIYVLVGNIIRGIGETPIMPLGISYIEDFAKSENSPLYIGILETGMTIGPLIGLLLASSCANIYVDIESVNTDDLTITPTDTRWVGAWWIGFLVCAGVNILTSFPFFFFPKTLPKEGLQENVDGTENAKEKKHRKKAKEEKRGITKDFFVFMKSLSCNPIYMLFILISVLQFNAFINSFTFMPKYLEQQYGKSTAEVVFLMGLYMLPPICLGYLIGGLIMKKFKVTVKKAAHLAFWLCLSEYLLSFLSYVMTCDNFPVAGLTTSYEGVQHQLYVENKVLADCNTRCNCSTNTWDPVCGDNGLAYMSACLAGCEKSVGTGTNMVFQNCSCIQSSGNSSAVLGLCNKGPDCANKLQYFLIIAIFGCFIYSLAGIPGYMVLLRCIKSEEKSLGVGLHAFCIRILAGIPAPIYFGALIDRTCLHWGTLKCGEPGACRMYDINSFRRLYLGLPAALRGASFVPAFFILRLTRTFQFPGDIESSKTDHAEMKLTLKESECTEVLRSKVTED
# [2] = biological target: T2, Solute carrier organic anion transporter family member 1A1 (Rattus norvegicus, UniProt P46720); test: as §1
# T2 sequence (P46720 whole entry): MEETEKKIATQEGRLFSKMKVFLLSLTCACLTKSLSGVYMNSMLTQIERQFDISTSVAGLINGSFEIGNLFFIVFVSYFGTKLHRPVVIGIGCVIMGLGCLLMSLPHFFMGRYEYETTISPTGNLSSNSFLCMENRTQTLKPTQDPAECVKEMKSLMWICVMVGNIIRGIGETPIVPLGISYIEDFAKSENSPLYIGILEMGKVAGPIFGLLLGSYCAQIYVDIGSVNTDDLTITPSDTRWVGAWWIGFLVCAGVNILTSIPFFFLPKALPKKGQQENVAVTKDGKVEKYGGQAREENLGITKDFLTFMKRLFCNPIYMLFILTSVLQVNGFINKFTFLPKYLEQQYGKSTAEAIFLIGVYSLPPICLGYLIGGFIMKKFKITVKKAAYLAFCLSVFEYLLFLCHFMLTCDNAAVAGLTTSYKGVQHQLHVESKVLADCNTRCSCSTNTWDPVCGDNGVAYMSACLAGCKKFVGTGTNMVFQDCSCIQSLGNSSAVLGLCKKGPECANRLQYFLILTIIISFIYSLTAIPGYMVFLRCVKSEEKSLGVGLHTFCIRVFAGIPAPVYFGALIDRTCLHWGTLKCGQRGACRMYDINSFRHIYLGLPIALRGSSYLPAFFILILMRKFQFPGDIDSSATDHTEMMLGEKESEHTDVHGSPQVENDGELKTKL
# [3] = biological target: T1, Solute carrier organic anion transporter family member 1A4; test: (§2) TP_TRANSPORTER: Western in vivo SD rat, liver
# [4] = biological target: T2, Solute carrier organic anion transporter family member 1A1; test: as §2
smiles,measurement,setting,value
CCC1(c2ccccc2)C(=O)NC(=O)NC1=O [PHENOBARBITAL],Activity,[1],inducer [+]
same,Activity,[2],is not an inducer [-]
same,Activity,[3],inducer [+]
same,Activity,[4],is not an inducer [-]
